Results published in ChEMBL document CHEMBL1139580, “Pyrrolo[1,2-a][1,4]benzodiazepine: a novel class of non-azole anti-dermatophyte anti-fungal agents” (Bioorg Med Chem Lett, 2005).
Values after ≈ are worked out from the molar mass of the structure shown.

Tests used:
Aspergillus fumigatus = test: Minimum inhibitory concentration against Aspergillus fumigatus B42928 by microdilution method; assay type: functional
Candida parapsilosis = test: Minimum inhibitory concentration against Candida B66126 parapsilosis by microdilution method; assay type: functional; details: Lodderomyces parapsilosis
[1] = Minimum inhibitory concentration against Trichophyton mentagrophytes B70554 by microdilution method; assay type: functional; details: Trichophyton benhamiae
[2] = Minimum inhibitory concentration against Microsporum canis B68128 by microdilution method; assay type: functional
Cryptococcus neoformans = test: Minimum inhibitory concentration against Cryptococcus neoformans B66663 by microdilution method; assay type: functional
[3] = Minimum inhibitory concentration against Trichophyton rubrum B68183 by microdilution method; assay type: functional
[4] = Minimum inhibitory concentration against Sporothrix schenckii B64284 by microdilution method; assay type: functional
[5] = Bioavailability in plasma of Microsporum canis infected guinea pig after […] administration of 2 mg/kg dose; assay type: ADME, organism-based, Cavia porcellus; details: read-out: Activity

Structure (SMILES)	MIC (Aspergillus fumigatus) [µM]	MIC (Candida parapsilosis) [µM]	MIC [1] [µM]	MIC [2] [µM]	MIC (Cryptococcus neoformans) [µM]	MIC [3] [µM]	MIC [4]	bioavailability [5] [%]
CCc1ccc(C2NCc3c(F)cccc3-n3cccc32)cc1 (centres undefined)	10 (≈ 3.06 µg/mL)	10 (≈ 3.06 µg/mL)	1 (≈ 0.306 µg/mL)	3.2 (≈ 0.98 µg/mL)	100 (≈ 30.6 µg/mL)	0.32 (≈ 0.098 µg/mL)	100 µM (≈ 30.6 µg/mL)	
CCc1ccc(C2NCc3c(Cl)cccc3-n3cccc32)cc1 (centres undefined)	3.2 (≈ 1.03 µg/mL)	1 (≈ 0.323 µg/mL)	0.1 (≈ 0.0323 µg/mL)	0.32 (≈ 0.103 µg/mL)	100 (≈ 32.3 µg/mL)	0.03 (≈ 0.00969 µg/mL)	100 µM (≈ 32.3 µg/mL)	
CCc1ccc(C2=NCc3ccc(Cl)cc3-n3cccc32)cc1	0.32 (≈ 0.103 µg/mL)	1 (≈ 0.321 µg/mL)	0.1 (≈ 0.0321 µg/mL)	0.32 (≈ 0.103 µg/mL)	1 (≈ 0.321 µg/mL)	0.065 (≈ 0.0209 µg/mL)	6.6 µM (≈ 2.12 µg/mL)	
CCc1ccc([C@H]2NCc3c(Cl)cccc3-n3cccc32)cc1	1 (≈ 0.323 µg/mL)	0.32 (≈ 0.103 µg/mL)	0.01 (≈ 0.00323 µg/mL)	0.32 (≈ 0.103 µg/mL)	100 (≈ 32.3 µg/mL)	0.03 (≈ 0.00969 µg/mL)	100 µM (≈ 32.3 µg/mL)	< 5
CCc1ccc(C2NCc3c(C)cccc3-n3cccc32)cc1 (centres undefined)	100 (≈ 30.2 µg/mL)	55 (≈ 16.6 µg/mL)	1 (≈ 0.302 µg/mL)	2.1 (≈ 0.635 µg/mL)	100 (≈ 30.2 µg/mL)	0.21 (≈ 0.0635 µg/mL)	100 µM (≈ 30.2 µg/mL)	
Cc1ccc(C2NCc3c(Cl)cccc3-n3cccc32)cc1 (centres undefined)	100 (≈ 30.9 µg/mL)	100 (≈ 30.9 µg/mL)	2.1 (≈ 0.649 µg/mL)	2.1 (≈ 0.649 µg/mL)	100 (≈ 30.9 µg/mL)	0.1 (≈ 0.0309 µg/mL)	100 µM (≈ 30.9 µg/mL)	
CCc1ccc(C2c3cccn3-c3cccc(Cl)c3CN2C)cc1 (centres undefined)	100 (≈ 33.7 µg/mL)	100 (≈ 33.7 µg/mL)	55 (≈ 18.5 µg/mL)	100 (≈ 33.7 µg/mL)	100 (≈ 33.7 µg/mL)	51.6 (≈ 17.4 µg/mL)	100 µM (≈ 33.7 µg/mL)	
Clc1cccc2c1CNC(c1ccccc1)c1cccn1-2 (centres undefined)	100 (≈ 29.5 µg/mL)	100 (≈ 29.5 µg/mL)	100 (≈ 29.5 µg/mL)	100 (≈ 29.5 µg/mL)	100 (≈ 29.5 µg/mL)	0.32 (≈ 0.0943 µg/mL)	100 µM (≈ 29.5 µg/mL)	
CCc1ccc(C2NCc3cccc(Cl)c3-n3cccc32)cc1 (centres undefined)	100 (≈ 32.3 µg/mL)	100 (≈ 32.3 µg/mL)	3.2 (≈ 1.03 µg/mL)	3.2 (≈ 1.03 µg/mL)	100 (≈ 32.3 µg/mL)	1 (≈ 0.323 µg/mL)	100 µM (≈ 32.3 µg/mL)	
CCc1ccccc1C1NCc2c(Cl)cccc2-n2cccc21 (centres undefined)	100 (≈ 32.3 µg/mL)	100 (≈ 32.3 µg/mL)	100 (≈ 32.3 µg/mL)	100 (≈ 32.3 µg/mL)	100 (≈ 32.3 µg/mL)	10 (≈ 3.23 µg/mL)	100 µM (≈ 32.3 µg/mL)	
CC(C)(C)c1ccc(C2NCc3c(Cl)cccc3-n3cccc32)cc1 (centres undefined)	100 (≈ 35.1 µg/mL)	55 (≈ 19.3 µg/mL)	1 (≈ 0.351 µg/mL)	0.66 (≈ 0.232 µg/mL)	100 (≈ 35.1 µg/mL)	1 (≈ 0.351 µg/mL)	55 µM (≈ 19.3 µg/mL)	
CCc1ccc(C2NCc3c(OC)cccc3-n3cccc32)cc1 (centres undefined)	100 (≈ 31.8 µg/mL)	100 (≈ 31.8 µg/mL)	10 (≈ 3.18 µg/mL)	10 (≈ 3.18 µg/mL)	100 (≈ 31.8 µg/mL)	3.2 (≈ 1.02 µg/mL)	100 µM (≈ 31.8 µg/mL)	
CCc1ccc(C2=NCc3ccccc3-n3cccc32)cc1	1 (≈ 0.286 µg/mL)	0.32 (≈ 0.0916 µg/mL)	0.32 (≈ 0.0916 µg/mL)	0.32 (≈ 0.0916 µg/mL)	100 (≈ 28.6 µg/mL)	0.065 (≈ 0.0186 µg/mL)	100 µM (≈ 28.6 µg/mL)	
CCc1ccc(C2NCc3ccc(Cl)cc3-n3cccc32)cc1 (centres undefined)	100 (≈ 32.3 µg/mL)	100 (≈ 32.3 µg/mL)	1 (≈ 0.323 µg/mL)	1 (≈ 0.323 µg/mL)	100 (≈ 32.3 µg/mL)	0.1 (≈ 0.0323 µg/mL)	100 µM (≈ 32.3 µg/mL)	
CCc1ccc([C@@H]2NCc3c(Cl)cccc3-n3cccc32)cc1	55 (≈ 17.8 µg/mL)	100 (≈ 32.3 µg/mL)	1 (≈ 0.323 µg/mL)	0.32 (≈ 0.103 µg/mL)	100 (≈ 32.3 µg/mL)	0.32 (≈ 0.103 µg/mL)	100 µM (≈ 32.3 µg/mL)	
Clc1cccc2c1CNC(c1ccc(Br)cc1)c1cccn1-2 (centres undefined)	10 (≈ 3.74 µg/mL)	100 (≈ 37.4 µg/mL)	0.21 (≈ 0.0785 µg/mL)	0.32 (≈ 0.12 µg/mL)	100 (≈ 37.4 µg/mL)	0.21 (≈ 0.0785 µg/mL)	100 µM (≈ 37.4 µg/mL)	
CCc1ccc(C2NCc3c(SC)cccc3-n3cccc32)cc1 (centres undefined)	100 (≈ 33.4 µg/mL)	100 (≈ 33.4 µg/mL)	3.2 (≈ 1.07 µg/mL)	3.2 (≈ 1.07 µg/mL)	100 (≈ 33.4 µg/mL)	0.32 (≈ 0.107 µg/mL)	100 µM (≈ 33.4 µg/mL)	
CCCc1ccc(C2NCc3c(Cl)cccc3-n3cccc32)cc1 (centres undefined)	100 (≈ 33.7 µg/mL)	6.6 (≈ 2.22 µg/mL)	0.66 (≈ 0.222 µg/mL)	0.66 (≈ 0.222 µg/mL)	100 (≈ 33.7 µg/mL)	0.32 (≈ 0.108 µg/mL)	100 µM (≈ 33.7 µg/mL)	
CCc1ccc(C2NCc3cc(Cl)ccc3-n3cccc32)cc1 (centres undefined)	100 (≈ 32.3 µg/mL)	100 (≈ 32.3 µg/mL)	51.6 (≈ 16.7 µg/mL)	100 (≈ 32.3 µg/mL)	100 (≈ 32.3 µg/mL)	3.2 (≈ 1.03 µg/mL)	100	
CCc1ccc(C2NCc3ccccc3-n3cccc32)cc1 (centres undefined)	1 (≈ 0.288 µg/mL)	100 (≈ 28.8 µg/mL)	3.2 (≈ 0.923 µg/mL)	100 (≈ 28.8 µg/mL)	100 (≈ 28.8 µg/mL)	1 (≈ 0.288 µg/mL)	100 µM (≈ 28.8 µg/mL)	
CCc1ccc(C2=NCc3c(Cl)cccc3-n3cccc32)cc1	0.32 (≈ 0.103 µg/mL)	0.32 (≈ 0.103 µg/mL)	0.03 (≈ 0.00962 µg/mL)	0.03 (≈ 0.00962 µg/mL)	100 (≈ 32.1 µg/mL)	0.01 (≈ 0.00321 µg/mL)	100 µM (≈ 32.1 µg/mL)	
CCc1cccc(C2NCc3c(Cl)cccc3-n3cccc32)c1 (centres undefined)	10 (≈ 3.23 µg/mL)	10 (≈ 3.23 µg/mL)	1 (≈ 0.323 µg/mL)	1 (≈ 0.323 µg/mL)	100 (≈ 32.3 µg/mL)	0.1 (≈ 0.0323 µg/mL)	100 µM (≈ 32.3 µg/mL)	
Clc1ccc(C2NCc3c(Cl)cccc3-n3cccc32)cc1 (centres undefined)	51.6 (≈ 17 µg/mL)	100 (≈ 32.9 µg/mL)	0.66 (≈ 0.217 µg/mL)	0.66 (≈ 0.217 µg/mL)	100 (≈ 32.9 µg/mL)	0.32 (≈ 0.105 µg/mL)	100 µM (≈ 32.9 µg/mL)	
CN(C/C=C/C#CC(C)(C)C)Cc1cccc2ccccc12 [TERBINAFINE]	0.32 (≈ 0.0933 µg/mL)	0.32 (≈ 0.0933 µg/mL)	0.01 (≈ 0.00291 µg/mL)	0.03 (≈ 0.00874 µg/mL)	1 (≈ 0.291 µg/mL)	0.003 (≈ 0.000874 µg/mL)	0.32 µM (≈ 0.0933 µg/mL)	
